Bridge positions count the residues as written; N and C are the ends. Square brackets hold non-standard residues; d marks the D form. Peptide text beside a SMILES is read from it. R8 = C=CCCCCCC[C@@](C)(N)C(=O)O; S5 = C=CCCC[C@](C)(N)C(=O)O; Nle = CCCC[C@H](N)C(=O)O
Key:
[1] = Circular dichroism, α-helicity; format: physicochemical; conditions: in solution
Experimental: Assays to Determine α-Helicity: Compounds are dissolved in an aqueous solution (e.g., 5 mM potassium phosphate solution at pH 7, or distilled H2O, to concentrations of 25-50 μM). Circular dichroism (CD) spectra are obtained on a spectropolarimeter (e.g., Jasco J-710, Aviv) using standard measurement parameters (e.g., temperature, 20° C.; wavelength, 190-260 nm; step resolution, 0.5 nm; speed, 20 nm/sec; accumulations, 10; response, 1 sec; bandwidth, 1 nm; path length, 0.1 cm). The α-helical content of each peptide is calculated by dividing the mean residue ellipticity by the reported value for a model helical decapeptide (Yang et al., Methods Enzymol. 130:208 (1986)).
Circular Dichroism: Acetylated peptides were dissolved in 10% (vol/vol) acetonitrile in water for circular dichroism analyses, performed on an Aviv Biomedical spectrophotometer, as reported (see Bird et. al., Methods in Enzymol., 446:369-386 (2008)).

[2] = biological target: T1, deubiquitinase enzyme USP7 (Homo sapiens, UniProt Q93009); test: Deubiquitination of p53 by USP7 in the reconstitution assay; format: biochemical; conditions: peptide 30 μM
T1 construct: purchased BostonBiochem E-519
Experimental: (§1) In Vitro Ubiquitin Pathway Reconstitution Assay: Reactions containing recombinant His-p53 (0.1 μM), in the presence or absence of peptide (30 μM), UBA1 (0.1 μM), UBE2D (1 μM), HDM2 (1 μM), ubiquitin (1 μM) and ATP (10 mM) (all Boston Biochem K-200B), preactivated Ub-UBEA2 (3 μM) (Boston Biochem E2-802), and USP7 (1 μM) (BostonBiochem E-519), as indicated, were mixed and incubated for 2 h at 37° C. in a final volume of […] followed by denaturation by boiling in SDS-containing loading dye for 10 min at 90° C. Samples were resolved by […] gel electrophoresis and transferred to nitrocellulose membrane. Membranes were blocked with 3% milk for 1 h, incubated overnight in PBS containing 3% BSA and mouse p53 antibody (Boston Biochem K-200B) at a 1:1000 dilution, washed in PBS containing 0.1% Tween-20, and then incubated in PBS containing 3% BSA and anti-mouse secondary antibody (BioRad AAC10P) at a 1:5000 dilution for 1 hour at room temperature. Membranes were again washed in PBS containing 0.1% Tween-20 and imaged using Amersham ECL Prime (GE Life Sciences) on an Amersham Imager 680 (GE Life Sciences).

proteinase K = proteinase K (Parengyodontium album, UniProt P06873); test: in vitro; conditions: proteinase K (isolated protease) in Tris HCl buffer, pH 7.4
Experimental: Peptide Proteolysis Assay: In vitro proteolytic degradation was measured by LC/MS (Agilent 1200) using the following parameters: 20 μl injection, 0.6 mL flow rate, 20-min run time consisting of a gradient of water (0.1% formic acid) to 20%-80% acetonitrile (0.75% formic acid) over 15-min, 4-min wash to revert to starting gradient conditions, and 0.5-min post-time. The MSD set to scan mode with one channel at (M+2H)/2, ±1 mass units, one channel at (M+3H)/3, ±1 mass units, and the other at (M+4H)/4, ±1 mass units. Integration of each MSD signal yielded areas under the curve of >108 counts. Reaction samples were composed of 5 μl peptide in DMSO (1 mM stock) and 195 μl buffer consisting of 50 mM Tris HCl, pH 7.4. Upon injection of the zero time sample, 6 μl of 20 ng/μL proteinase K (New England Biolabs) was added, and the amount of intact peptide quantitated by serial injection over time. A plot of MSD area versus time yielded an exponential decay curve, and half-lives were determined by nonlinear regression analysis using Prism software (GraphPad).

[3] = test system: ubiquitin cascade E1 (UBA1), E2 (UBE2A), E3 (HDM2), substrate p53; test: In vitro ubiquitin pathway reconstitution assay (p53 ubiquitination); format: biochemical; conditions: peptide 30 μM; for ubiquitination of p53 with E2 pre-activated with Ub: pre-activated E2 instead of uncharged E2 and Ub; for ubiquitination of p53 with E1, E2, E3, Ub and ATP: unactivated E2
Experimental: as §1

[4] = test system: HeLa S100 lysate fraction, polyubiquitin chains; test: Cellular lysate enzyme inhibition (ubiquitination) assay; format: biochemical; conditions: excess ubiquitin, ATP regeneration solution, vs vehicle
Experimental: Cellular Lysate Enzyme Inhibition Assays: Cellular lysate assays were performed with 1 mg/mL final concentration HeLa S100 lysate fraction and the indicated concentration of peptide or DMSO vehicle control in an assay buffer containing 1×ATP regeneration solution, 20 mM HEPES, 50 mM NaCl, 5 mM MgCl2, 2 mM DTT, 100 nM ubiquitin aldehyde, and a protease-phosphatase inhibitor cocktail at pH 7.4. Reactions were initiated by addition of ubiquitin to a final concentration of 100 μM and allowed to proceed for 30 minutes at room temperature, followed by quenching with non-reducing LDS loading buffer. Proteins were separated by SDS-PAGE gel electrophoresis and detected by western blot against polyubiquitin (Cell Signaling Technology CST3936).

T1 sequence (Q93009 whole entry): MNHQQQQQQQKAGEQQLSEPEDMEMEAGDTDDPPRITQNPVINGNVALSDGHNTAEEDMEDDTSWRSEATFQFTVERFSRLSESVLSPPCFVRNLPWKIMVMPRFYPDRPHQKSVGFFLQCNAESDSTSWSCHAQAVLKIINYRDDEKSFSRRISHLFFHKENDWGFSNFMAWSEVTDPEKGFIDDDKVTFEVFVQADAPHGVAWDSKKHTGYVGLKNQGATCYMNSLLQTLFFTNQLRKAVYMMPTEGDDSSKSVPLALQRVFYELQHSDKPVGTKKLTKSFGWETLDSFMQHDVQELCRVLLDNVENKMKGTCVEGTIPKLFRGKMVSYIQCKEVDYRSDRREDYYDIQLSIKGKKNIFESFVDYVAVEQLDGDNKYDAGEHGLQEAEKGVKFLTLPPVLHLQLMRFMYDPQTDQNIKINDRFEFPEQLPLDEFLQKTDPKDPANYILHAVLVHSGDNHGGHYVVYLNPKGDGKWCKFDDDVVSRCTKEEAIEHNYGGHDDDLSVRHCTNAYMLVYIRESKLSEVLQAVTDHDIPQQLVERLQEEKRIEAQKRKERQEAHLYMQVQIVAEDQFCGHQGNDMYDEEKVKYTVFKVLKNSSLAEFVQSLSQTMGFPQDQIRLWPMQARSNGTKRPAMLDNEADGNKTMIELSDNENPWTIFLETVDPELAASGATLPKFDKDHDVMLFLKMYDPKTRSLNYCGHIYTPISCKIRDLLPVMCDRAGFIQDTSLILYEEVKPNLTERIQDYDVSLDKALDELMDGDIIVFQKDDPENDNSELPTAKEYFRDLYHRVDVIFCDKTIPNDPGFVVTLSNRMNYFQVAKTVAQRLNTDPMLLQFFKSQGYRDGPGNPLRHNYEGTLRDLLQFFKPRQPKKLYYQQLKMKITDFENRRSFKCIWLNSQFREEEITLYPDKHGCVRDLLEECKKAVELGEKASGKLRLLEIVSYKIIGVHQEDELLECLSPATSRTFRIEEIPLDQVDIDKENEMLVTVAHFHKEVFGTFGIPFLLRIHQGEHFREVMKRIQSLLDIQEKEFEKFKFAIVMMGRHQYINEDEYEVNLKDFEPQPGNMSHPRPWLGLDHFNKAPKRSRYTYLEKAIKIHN
proteinase K, sequence (P06873 106-384): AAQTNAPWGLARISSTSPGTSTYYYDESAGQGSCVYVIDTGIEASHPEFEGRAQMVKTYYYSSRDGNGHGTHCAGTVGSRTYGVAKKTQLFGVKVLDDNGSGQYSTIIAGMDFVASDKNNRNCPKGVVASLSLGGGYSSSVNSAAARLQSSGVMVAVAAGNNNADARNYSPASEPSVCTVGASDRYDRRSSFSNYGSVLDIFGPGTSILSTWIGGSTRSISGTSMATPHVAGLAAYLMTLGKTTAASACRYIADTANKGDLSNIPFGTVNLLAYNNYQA

CCCC[C@H](NC(C)=O)C(=O)N[C@@H](CO)C(=O)N[C@H](C(=O)N1CCC[C@H]1C(=O)N[C@]1(C)CCCCCCC=CCCC[C@@](C)(C(=O)N[C@@H](Cc2ccccc2)C(=O)N[C@@H](CCCCN)C(=O)N[C@@H](CCCNC(=N)N)C(=O)N[C@@H](CC(C)C)C(=O)N[C@@H](CCC(N)=O)C(N)=O)NC(=O)[C@H](CCCNC(=N)N)NC(=O)[C@H](CCCC)NC(=O)[C@H](CC(C)C)NC(=O)[C@H](CCCNC(=N)N)NC(=O)[C@H](CCCNC(=N)N)NC(=O)[C@H](CCCNC(=N)N)NC1=O)[C@@H](C)O [SAH-UBE2A-11, BSTPX1RRRLBRX2FKRLQ] (Ac-[Nle]STP[R8]RRRL[Nle]R[S5]FKRLQ-NH2; staple 5-12)
helicity / helical content [1]: 54%
activity of deubiquitinase USP7 against p53 [2]: no effect on the activity of the deubiquitinase enzyme USP7 against p53
activity of deubiquitinase USP7 against p53 ([2]; listed as SAH-UBE2A): regardless of SAH-UBE2A presence
half-life at 25 µM (proteinase K): > 6 h
ubiquitination of p53 with E2 pre-activated with Ub [3]: no effect on the ubiquitination of p53
ubiquitination of p53 with E2 pre-activated with Ub ([3]; listed as SAH-UBE2A): circumvents the inhibitory activity of SAH-UBE2A
ubiquitination of p53 with E1, E2, E3, Ub and ATP [3]: inhibited the ubiquitination of p53 protein
ubiquitination of p53 with E1, E2, E3, Ub and ATP ([3]; listed as SAH-UBE2A): inhibits the ubiquitination of p53
formation of polyubiquitin chains in HeLa cell cytoplasmic fraction [4]: dose-dependently inhibited formation of polyubiquitin chains
